Drawing on article PMC11861483, “Genetic characterization of the AHAS mutant line K4 with resistance to AHAS-inhibitor herbicides in rapeseed (Brassica napus L.)” (Stress Biology, 2025), this text covers Kd for one molecule.

In the test the target is T1, BnAHAS3 (ZS9) (Brassica napus, UniProt P27819).
T1 construct: native, isolated and purified from total protein of ZS9 seedlings; AHAS on SDS-PAGE about 58-66 kD; immobilised on CM5 chip
T1 sequence (P27819 70-652): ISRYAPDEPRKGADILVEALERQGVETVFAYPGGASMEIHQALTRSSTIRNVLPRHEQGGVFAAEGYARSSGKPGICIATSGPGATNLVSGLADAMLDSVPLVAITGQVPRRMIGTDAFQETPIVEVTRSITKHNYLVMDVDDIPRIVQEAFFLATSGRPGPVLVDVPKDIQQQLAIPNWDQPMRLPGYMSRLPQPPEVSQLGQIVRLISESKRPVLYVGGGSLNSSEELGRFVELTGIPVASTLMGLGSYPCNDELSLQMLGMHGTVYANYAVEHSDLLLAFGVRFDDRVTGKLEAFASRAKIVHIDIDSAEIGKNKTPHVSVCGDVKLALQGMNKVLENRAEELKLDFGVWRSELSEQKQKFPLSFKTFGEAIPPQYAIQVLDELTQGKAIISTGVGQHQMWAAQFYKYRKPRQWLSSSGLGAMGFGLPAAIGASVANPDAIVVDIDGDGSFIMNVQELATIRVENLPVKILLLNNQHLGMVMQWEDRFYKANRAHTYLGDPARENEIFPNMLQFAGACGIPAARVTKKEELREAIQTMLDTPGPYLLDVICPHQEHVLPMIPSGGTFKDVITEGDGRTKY
Put plainly: surface plasmon resonance (Biacore T200, CM5 chip), kinetic fit kd/ka. The class given is binding. The conditions noted are these: read-out: Tribenuron-methyl / KD. The text has this: surface plasmon resonance (Biacore T200, CM5 chip), kinetic fit kd/ka on BnAHAS3 (ZS9)

For the molecule `COC(=O)c1ccccc1S(=O)(=O)NC(=O)N(C)c1nc(C)nc(OC)n1` [tribenuron-methyl], the Kd came out at 33 µM.
